{
  "source": "patent US20070093520A1",
  "about": "“Method of treatment of diarrhea-predominant irritable bowel syndrome in a subject” (priority 2005, published 2007)",
  "tested_on": "diarrhea-predominant IBS subjects",
  "assay": "3007 Study: open-label 52-week safety study, adverse events and withdrawals",
  "conditions": "P/C group",
  "data": [
    {"smiles": "Cc1nccn1C[C@H]1CCc2c(c3cccc4c3n2CCC4)C1=O", "note": "[cilansetron, (R)-(−)-4,5,6,8,9,10-hexahydro-10-[(2-methyl-1H-imidazol-1-yl)methyl]-11H-pyrido-[3,2,1-jk]-carbazol-11-one]", "values": [
      {"measurement": "TEAE: Anaemias NEC", "result": "1 (<1%) n (%)"},
      {"measurement": "TEAE: Angina Pectoris", "result": "0 n (%)"},
      {"measurement": "TEAE: Anorexia", "result": "1 (<1%) n (%)"},
      {"measurement": "TEAE: Anxiety", "result": "5 (2%) n (%)"},
      {"measurement": "TEAE: Anxiety Aggravated", "result": "1 (<1%) n (%)"},
      {"measurement": "TEAE: Anxiety Symptoms", "result": "7 (3%) n (%)"},
      {"measurement": "TEAE: Apocrine and Eccrine Gland Disorders", "result": "3 (1%) n (%)"},
      {"measurement": "TEAE: Appetite Disorders", "result": "1 (<1%) n (%)"},
      {"measurement": "TEAE: Arrhythmia NOS", "result": "0 n (%)"},
      {"measurement": "TEAE: Asthenic Conditions", "result": "7 (3%) n (%)"},
      {"measurement": "TEAE: Asthma Aggravated", "result": "0 n (%)"},
      {"measurement": "TEAE: Asthma NOS", "result": "1 (<1%) n (%)"},
      {"measurement": "TEAE: Atopic Disorders", "result": "1 (<1%) n (%)"},
      {"measurement": "TEAE: Atrial Fibrillation", "result": "0 n (%)"},
      {"measurement": "TEAE: Atrioventricular Block First Degree", "result": "0 n (%)"},
      {"measurement": "TEAE: Basal Cell Carcinoma", "result": "4 (1%) n (%)"},
      {"measurement": "TEAE: Behaviour and Socialisation Disturbances", "result": "1 (<1%) n (%)"},
      {"measurement": "TEAE: Benign Ovarian Tumour*", "result": "1 (<1%) n (%)"},
      {"measurement": "TEAE: Biliary Tract Disorder NOS", "result": "1 (<1%) n (%)"},
      {"measurement": "TEAE: Binocular Eye Movement Disorder NOS", "result": "1 (<1%) n (%)"},
      {"measurement": "TEAE: Bladder Disorders NEC", "result": "1 (<1%) n (%)"},
      {"measurement": "TEAE: Bladder Infections and Inflammations", "result": "1 (<1%) n (%)"},
      {"measurement": "TEAE: Bladder Prolapse", "result": "1 (<1%) n (%)"},
      {"measurement": "TEAE: Bladder and Urethral Symptoms", "result": "1 (<1%) n (%)"},
      {"measurement": "TEAE: Blood and Lymphatic System Disorders", "result": "2 (<1%) n (%)"},
      {"measurement": "TEAE: Bone Neoplasm Malignant", "result": "0 n (%)"},
      {"measurement": "TEAE: Bone Neoplasms Malignant (Excl Sarcomas)", "result": "0 n (%)"},
      {"measurement": "TEAE: Bradyarrhythmia", "result": "1 (<1%) n (%)"},
      {"measurement": "TEAE: Breast Calcifications*", "result": "1 (<1%) n (%)"},
      {"measurement": "TEAE: Breast Cancer NOS*", "result": "2 (1%) n (%)"},
      {"measurement": "TEAE: Breast Disorder NOS*", "result": "1 (<1%) n (%)"},
      {"measurement": "TEAE: Breast Disorders NEC*", "result": "4 (2%) n (%)"},
      {"measurement": "TEAE: Breast Mass NOS*", "result": "2 (1%) n (%)"},
      {"measurement": "TEAE: Breast and Nipple Neoplasms Malignant*", "result": "2 (1%) n (%)"},
      {"measurement": "TEAE: Breath Sounds Decreased", "result": "0 n (%)"},
      {"measurement": "TEAE: Breathing Abnormalities", "result": "1 (<1%) n (%)"},
      {"measurement": "TEAE: Bronchospasm and Obstruction", "result": "1 (<1%) n (%)"},
      {"measurement": "TEAE: Bruising, Ecchymosis and Purpura", "result": "0 n (%)"},
      {"measurement": "TEAE: Bundle Branch Block Right", "result": "0 n (%)"},
      {"measurement": "TEAE: Calculus Renal NOS", "result": "0 n (%)"},
      {"measurement": "TEAE: Calculus Ureteric", "result": "0 n (%)"},
      {"measurement": "TEAE: Cardiac Conduction Disorders", "result": "0 n (%)"},
      {"measurement": "TEAE: Cardiac Disorders", "result": "6 (2%) n (%)"},
      {"measurement": "TEAE: Cardiac Fibrillation NOS", "result": "1 (<1%) n (%)"},
      {"measurement": "TEAE: Cardiac Flutter", "result": "1 (<1%) n (%)"},
      {"measurement": "TEAE: Cardiac Signs and Symptoms NEC", "result": "2 (<1%) n (%)"},
      {"measurement": "TEAE: Cataract Unilateral", "result": "0 n (%)"},
      {"measurement": "TEAE: Cataracts (Excl Congenital)", "result": "1 (<1%) n (%)"},
      {"measurement": "TEAE: Cerumen Impaction", "result": "0 n (%)"},
      {"measurement": "TEAE: Chest Discomfort", "result": "1 (<1%) n (%)"},
      {"measurement": "TEAE: Chest Pain", "result": "4 (1%) n (%)"},
      {"measurement": "TEAE: Chest Tightness", "result": "0 n (%)"},
      {"measurement": "TEAE: Cholecystitis and Cholelithiasis", "result": "0 n (%)"},
      {"measurement": "TEAE: Cholelithiasis", "result": "0 n (%)"},
      {"measurement": "TEAE: Congenital, Familial and Genetic Disorders", "result": "1 (<1%) n (%)"},
      {"measurement": "TEAE: Conjunctival Infections, Irritations and Inflammations", "result": "0 n (%)"},
      {"measurement": "TEAE: Conjunctivitis", "result": "0 n (%)"},
      {"measurement": "TEAE: Conjunctivitis Allergic", "result": "0 n (%)"},
      {"measurement": "TEAE: Contusion", "result": "2 (<1%) n (%)"},
      {"measurement": "TEAE: Cough", "result": "6 (2%) n (%)"},
      {"measurement": "TEAE: Coughing and Associated Symptoms", "result": "6 (2%) n (%)"},
      {"measurement": "TEAE: Cyst NOS", "result": "0 n (%)"},
      {"measurement": "TEAE: Cystitis Interstitial", "result": "1 (<1%) n (%)"},
      {"measurement": "TEAE: Dacryostenosis Acquired", "result": "0 n (%)"},
      {"measurement": "TEAE: Deafness NOS", "result": "0 n (%)"},
      {"measurement": "TEAE: Dehydration", "result": "1 (<1%) n (%)"},
      {"measurement": "TEAE: Depression", "result": "5 (2%) n (%)"},
      {"measurement": "TEAE: Depression Aggravated", "result": "1 (<1%) n (%)"},
      {"measurement": "TEAE: Depressive Disorders", "result": "6 (2%) n (%)"},
      {"measurement": "TEAE: Dermal and Epidermal Conditions NEC", "result": "4 (1%) n (%)"},
      {"measurement": "TEAE: Dermatitis Allergic", "result": "1 (<1%) n (%)"},
      {"measurement": "TEAE: Dermatitis Ascribed to Specific Agent", "result": "1 (<1%) n (%)"},
      {"measurement": "TEAE: Dermatitis Contact", "result": "1 (<1%) n (%)"},
      {"measurement": "TEAE: Dermatitis Medicamentosa", "result": "1 (<1%) n (%)"},
      {"measurement": "TEAE: Dermatitis NOS", "result": "1 (<1%) n (%)"},
      {"measurement": "TEAE: Dermatitis and Eczema", "result": "4 (1%) n (%)"},
      {"measurement": "TEAE: Dermographism", "result": "1 (<1%) n (%)"},
      {"measurement": "TEAE: Diabetes Mellitus (Incl Subtypes)", "result": "1 (<1%) n (%)"},
      {"measurement": "TEAE: Diabetes Mellitus Aggravated", "result": "1 (<1%) n (%)"},
      {"measurement": "TEAE: Diabetes Mellitus Non-Insulin-Dependent", "result": "0 n (%)"},
      {"measurement": "TEAE: Disturbances in Initiating and Maintaining Sleep", "result": "0 n (%)"},
      {"measurement": "TEAE: Drug Hypersensitivity", "result": "0 n (%)"},
      {"measurement": "TEAE: Dry Eye NOS", "result": "0 n (%)"},
      {"measurement": "TEAE: Dysfunctional Uterine Bleeding*", "result": "0 n (%)"},
      {"measurement": "TEAE: Dyshidrosis", "result": "1 (<1%) n (%)"}
    ]}
  ]
}
